Laboratory results: the supplement of paper PMC10307832

Compound: CC1=NN=C(O1)C2=NN=C(C=C2)N3CCC(CC3)OC4=C(C=CC(=C4)F)Cl + CC1(C)CCC(c2ccc(Cl)cc2)=C(CN2CCN(c3ccc(C(=O)NS(=O)(=O)c4ccc(N[C@H](CCN5CCOCC5)CSc5ccccc5)c(S(=O)(=O)C(F)(F)F)c4)cc3)CC2)C1 [Navitoclax] (partner 0.5 µM)
Test: relative viability (nuclei count vs DMSO), 5 days (fraction); higher = more cells survive
Details: first compound 8 µM
Method in brief: (§1)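 For relative viability, nuclei counts in treated wells were divided by those in vehicle wells. Lung cancer cell lines had been pin-tool dosed in 1536-well plates the day after seeding and cultured for 5 days, then fixed and stained in one step (final 0.05% Triton X-100, 1% formaldehyde, 1 ug/ml Hoechst) and imaged at 4×. Doses were one drug alone or a fixed anchor-drug dose plus five library-drug doses (not always all listed) in √10 steps, and values are duplicate-plate medians.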

Cell Line	relative viability
NCI-H1437	0.46
PC-14	0.702
CAL-12T	1
NCI-H1734	0.754
EPLC-272H	1.01
NCI-H3122	0.46
NCI-H2009	0.54
NCI-H520	1.09
NCI-H1651	0.717
NCI-H1993	0.878
NCI-H2228	0.526
HCC-15	0.491
NCI-H1793	0.282
EKVX	0.423
LC-2-ad	0.218
NCI-H1666	0.698
NCI-H1944	0.672
NCI-H2085	0.698

Compound: CC1=NN=C(O1)C2=NN=C(C=C2)N3CCC(CC3)OC4=C(C=CC(=C4)F)Cl + COc1cc2c(Oc3ccc(NC(=O)C4(C(=O)Nc5ccc(F)cc5)CC4)cc3F)ccnc2cc1OCCCN1CCOCC1 [Foretinib] (partner 0.25 µM)
Test: as above
Details: first compound 0.253 µM
Method in brief: as §1

Cell Line	relative viability
NCI-H460	0.282
HOP-62	0.806
LXF-289	0.692
BEN	0.679
HARA	0.538
HCC-78	0.465
NCI-H647	0.565
LCLC-97TM1	0.481
NCI-H2126	0.982
A-427	1.02
RERF-LC-KJ	0.617
NCI-H1915	0.685
NCI-H441	0.658
NCI-H1395	0.939
201T	0.607
NCI-H2023	0.594
HCC-827	0.381
NCI-H322M	0.937

Cell Line	relative viability
NCI-H1437	0.724
PC-14	0.806
CAL-12T	0.965
NCI-H1734	0.861
EPLC-272H	0.713
NCI-H3122	0.431
NCI-H2009	0.711
NCI-H520	0.653
NCI-H1651	0.819
NCI-H1993	0.664
NCI-H2228	0.723
HCC-15	0.538
NCI-H1793	0.448
EKVX	0.41
LC-2-ad	0.66
NCI-H1666	0.496
NCI-H1944	0.464
NCI-H2085	0.808

Same assay, conditions: first compound 0.8 µM

Cell Line	relative viability
NCI-H460	0.299
HOP-62	0.833
LXF-289	0.671
BEN	0.7
HARA	0.289
HCC-78	0.51
NCI-H647	0.623
LCLC-97TM1	0.439
NCI-H2126	0.932
RERF-LC-KJ	0.533
NCI-H1915	0.532
NCI-H441	0.78
NCI-H1975	0.929
NCI-H1395	0.901
201T	0.758
NCI-H2023	0.613
HCC-827	0.239

Cell Line	relative viability
NCI-H322M	0.908
NCI-H1437	0.805
PC-14	0.779
CAL-12T	0.964
NCI-H1734	0.857
EPLC-272H	0.604
NCI-H3122	0.409
NCI-H2009	0.667
NCI-H1651	0.619
NCI-H1993	0.682
NCI-H2228	0.66
HCC-15	0.476
NCI-H1793	0.639
EKVX	0.382
LC-2-ad	0.634
NCI-H1666	0.47
NCI-H1944	0.463

Same assay, conditions: first compound 2.53 µM

Cell Line	relative viability
NCI-H460	0.273
HOP-62	0.806
LXF-289	0.66
BEN	0.665
HARA	0.317
HCC-78	0.467
NCI-H647	0.586
LCLC-97TM1	0.433
NCI-H2126	0.958
A-427	0.998
RERF-LC-KJ	0.544
NCI-H1915	0.531
NCI-H441	0.686
NCI-H1975	0.834
NCI-H1395	0.969
201T	0.661
NCI-H2023	0.64
HCC-827	0.353
NCI-H322M	1.03

Cell Line	relative viability
NCI-H1437	0.729
PC-14	0.768
CAL-12T	0.879
NCI-H1734	0.769
EPLC-272H	0.638
NCI-H3122	0.438
NCI-H2009	0.644
NCI-H520	0.757
NCI-H1651	0.689
NCI-H1993	0.709
NCI-H2228	0.845
HCC-15	0.405
NCI-H1793	0.565
EKVX	0.382
LC-2-ad	0.623
NCI-H1666	0.459
NCI-H1944	0.473
NCI-H2085	0.744

Same assay, conditions: first compound 8 µM

Cell Line	relative viability
NCI-H460	0.243
HOP-62	0.543
LXF-289	0.563
BEN	0.541
HARA	0.273
HCC-78	0.516
NCI-H647	0.426
LCLC-97TM1	0.381
NCI-H2126	0.985
A-427	0.871
RERF-LC-KJ	0.519
NCI-H1915	0.402
NCI-H441	0.605
NCI-H1975	0.757
NCI-H1395	0.893
201T	0.73
NCI-H2023	0.619
HCC-827	0.318
NCI-H322M	0.95

Cell Line	relative viability
NCI-H1437	0.512
PC-14	0.759
CAL-12T	0.777
NCI-H1734	0.699
EPLC-272H	0.637
NCI-H3122	0.397
NCI-H2009	0.636
NCI-H520	0.77
NCI-H1651	0.848
NCI-H1993	0.7
NCI-H2228	0.632
HCC-15	0.446
NCI-H1793	0.621
EKVX	0.36
LC-2-ad	0.507
NCI-H1666	0.412
NCI-H1944	0.498
NCI-H2085	0.698

Compound: CC1=NN=C(O1)C2=NN=C(C=C2)N3CCC(CC3)OC4=C(C=CC(=C4)F)Cl + Nc1nc2[nH]cc(CCc3ccc(C(=O)N[C@@H](CCC(=O)O)C(=O)O)cc3)c2c(=O)[nH]1 [Pemetrexed] (partner 0.2 µM)
Test: as above
Details: first compound 0.253 µM
Method in brief: as §1

Cell Line	relative viability
NCI-H460	0.0764
HOP-62	0.315
LXF-289	0.768
BEN	0.736
HARA	0.245
HCC-78	0.888
NCI-H647	0.11
LCLC-97TM1	0.184
NCI-H2126	0.69
A-427	1.03
RERF-LC-KJ	0.446
NCI-H1915	0.376
NCI-H441	0.295
NCI-H1975	0.217
NCI-H1395	0.69
201T	0.314
NCI-H2023	0.188
HCC-827	0.257
NCI-H322M	0.629

Cell Line	relative viability
NCI-H1437	0.24
PC-14	0.139
CAL-12T	0.946
NCI-H1734	0.433
EPLC-272H	0.313
NCI-H3122	0.138
NCI-H2009	0.605
NCI-H520	0.644
NCI-H1651	0.488
NCI-H1993	0.533
NCI-H2228	0.28
HCC-15	0.215
NCI-H1793	0.843
EKVX	0.269
LC-2-ad	0.267
NCI-H1666	0.735
NCI-H1944	0.372
NCI-H2085	0.801

Same assay, conditions: first compound 0.8 µM

Cell Line	relative viability
NCI-H460	0.0663
HOP-62	0.318
LXF-289	0.594
BEN	0.84
HARA	0.26
HCC-78	0.879
NCI-H647	0.158
NCI-H2126	0.607
A-427	0.792
RERF-LC-KJ	0.43
NCI-H1915	0.232
NCI-H441	0.265
NCI-H1975	0.272
NCI-H1395	0.668
201T	0.255
NCI-H2023	0.189
HCC-827	0.244
NCI-H322M	0.381

Cell Line	relative viability
NCI-H1437	0.282
PC-14	0.117
CAL-12T	1.05
NCI-H1734	0.364
EPLC-272H	0.339
NCI-H3122	0.142
NCI-H2009	0.547
NCI-H520	0.543
NCI-H1651	0.422
NCI-H1993	0.499
NCI-H2228	0.333
HCC-15	0.239
NCI-H1793	0.835
EKVX	0.263
LC-2-ad	0.27
NCI-H1666	0.69
NCI-H1944	0.328
NCI-H2085	0.676

Same assay, conditions: first compound 2.53 µM

Cell Line	relative viability
NCI-H460	0.0645
HOP-62	0.231
LXF-289	0.767
BEN	0.806
HARA	0.239
HCC-78	0.872
NCI-H647	0.13
LCLC-97TM1	0.199
NCI-H2126	0.635
A-427	0.922
RERF-LC-KJ	0.438
NCI-H1915	0.3
NCI-H441	0.223
NCI-H1975	0.271
NCI-H1395	0.831
201T	0.316
NCI-H2023	0.235
HCC-827	0.246
NCI-H322M	0.578

Cell Line	relative viability
NCI-H1437	0.232
PC-14	0.153
CAL-12T	1.03
NCI-H1734	0.434
EPLC-272H	0.285
NCI-H3122	0.16
NCI-H2009	0.587
NCI-H520	0.642
NCI-H1651	0.445
NCI-H1993	0.566
NCI-H2228	0.3
HCC-15	0.226
NCI-H1793	0.977
EKVX	0.343
LC-2-ad	0.282
NCI-H1666	0.741
NCI-H1944	0.493
NCI-H2085	0.841

Same assay, conditions: first compound 8 µM

Cell Line	relative viability
NCI-H460	0.071
HOP-62	0.17
LXF-289	0.726
BEN	0.741
HARA	0.231
HCC-78	0.853
NCI-H647	0.111
LCLC-97TM1	0.184
NCI-H2126	0.606
A-427	0.947
RERF-LC-KJ	0.455
NCI-H1915	0.235
NCI-H441	0.258
NCI-H1975	0.25
NCI-H1395	0.812
201T	0.339
NCI-H2023	0.182
HCC-827	0.224
NCI-H322M	0.592

Cell Line	relative viability
NCI-H1437	0.218
PC-14	0.121
CAL-12T	0.9
NCI-H1734	0.438
EPLC-272H	0.371
NCI-H3122	0.143
NCI-H2009	0.517
NCI-H520	0.471
NCI-H1651	0.444
NCI-H1993	0.541
NCI-H2228	0.363
HCC-15	0.214
NCI-H1793	0.79
EKVX	0.348
LC-2-ad	0.239
NCI-H1666	0.751
NCI-H1944	0.369
NCI-H2085	0.696
